Laboratory results: PMC5004205, “Spiro[pyrrolidine-3, 3´-oxindole] as potent anti-breast cancer compounds: Their design, synthesis, biological evaluation and cellular target identification” (Scientific Reports, 2016)
“Also recorded” adds a separate entry of the source.

Experiments:
Type in all cases: cell-based
COS-7 cells = test: MTT colorimetric cell viability assay, COS-7
Method: (§1) The MTT colorimetric viability assay was performed to evaluate the anticancer effect of compounds. 30,000 cells/100 μl of media were seeded per well and allowed to stretch and adhere overnight at 37 °C. Following day media was removed and 100 μl fresh media was added to the grown cells. Adhered cells were then treated with the compounds 5a-m dissolved in DMSO in triplicates at a standard concentration of 50 μM for 48 hours. There was one positive and one negative control along with 13 compounds. The results were measured all in triplicate in 45 wells of 96 well plate at each time point. Cytotoxic effect was evaluated using ability of live cells to cleave MTT ((3-[4, 5- dimethylthiazol-2-yl]-2, 5-diphenyl tetrazolium bromide)) (Sigma-Aldrich, St Louis, MO, USA), into formazan crystals. Post 48 hours of treatment, 10 μl of MTT (5 mg/ml in PBS) was added to the cells and incubated for 4 hours in dark at 37 °C. The violet colored crystals formed were then dissolved in 100 μl DMSO solvent (Dimethyl Sulfoxide, Sigma-Aldrich, St. Louis, MO, USA). The colorimetric assay was read by a MultiMode Plate Reader (Bio-Rad) at 595 nm. Percentage of Inhibition of drug was calculated by following formula: […]

MCF10A cells = test: MTT cytotoxicity assay, MCF10A
Method: MCF10A was obtained from American Tissue Type Culture Collection (ATCC, Bethesda, MD). All cells were grown in a humidified atmosphere at 37 °C, with 5% CO2 in air.
as §1
Cytotoxicity assay with MCF 10A
Experiment :MCF10A cytotoxicity assay 48 hours
Raw Data{Wavelength:595.0}
O.D1 O.D2 O.D3 AVG CTRL-TEST CTRL-TST/CTRL*100
(1 picture or pasted object on this page, not shown here)

MCF-7 cells [1] = test: Cell migration (scratch) assay; settings: 24 hours, compared to untreated cells
Method: MCF-7 cells were grown to confluence in six-well tissue culture plastic dishes to a density of ∼0.2 million cells/well. After 24 hrs of seeding, cells were treated with chemical compounds. The medium was removed and the cells were scratched by 200 μL pipette micro tip through the center of the plate. The cultures were washed to remove debris and re-cultured with DMEM containing 10% FBS for cell migration. The cells were imaged at 24 hrs and the migrated distance was measured. Migration rate was calculated by counting five to seven fields per image and the results presented as the average of three independent experiments performed over multiple days.

MCF-7 cells [2] = test: DNA fragmentation (DNA-ladder) assay; settings: MCF-7, gel electrophoresis
Method: The DMSO (dimethyl sulphoxide)–SDS (sodium dodecyl sulphate)–TE (Tris-EDTA) method: 2 million MCF-7cells were taken as starting material for DNA isolation. Cells were dislodged with Trypsin-EDTA and washed with 1 X PBS. DMSO was added directly to the cell pellet (100 μl) and mixed well by pipetting. TE buffer (pH 7.4) with 2% SDS was added into the mixture with same volume, followed by pipetting. The solution was centrifuged at 3000 rpm at 4 °C and 30 μL of the supernatant was loaded on agarose gel to check the effect of drugs on DNA molecule.

SMILES: O=C1Nc2ccccc2C12CCNC2c1ccccc1 (stereo not shown) [Compound 5l]
- Inhibition of proliferation of healthy COS-7 cells (COS-7 cells): did not inhibit the proliferation
- inhibition at 50 µM (COS-7 cells; Chlorocebus aethiops, COS-7, 50 μM, MTT, triplicates, read-out: Percentage inhibition COS-7): 15.4 ± 0.18%
- Effect on proliferation of healthy MCF10A cells (MCF10A cells): did not inhibit the proliferation; also recorded: little or no effect
- CTRL-TST/CTRL*100 MCF10A cytotoxicity (MCF10A cells; 48 hours, 595 nm): 0.08
- Percentage inhibition MCF10A (MCF10A cells; MTT, 48 hours): 0.08%
- Inhibition of cell migration of MCF-7 cells (MCF-7 cells [1]): inhibit cell migration
- DNA fragmentation pattern / mode of cell death (MCF-7 cells [2]): smearing of DNA fragments
